# Assay results published in US5451571A (The Cleveland Clinic Foundation, priority 1994, dated 1995).
# Entries after “also recorded” stand apart in the source; their conditions may differ. Where two headings read alike, the source gives them in different places. Residues, ends and D or L forms follow the SMILES beside them. No end group written: not given here. *: point of attachment. Cbz = O=C(OCc1ccccc1)*
# Assays:
# [1] = biological target: T1, prolylendopeptidase (Canis lupus familiaris, UniProt A0A8I3N6C8); test: 125I-Ang-(1-7) production from 125I-Ang I in dog hypothalamus homogenates (HPLC); type: biochemical; settings: DTT 1 mM
# T1 construct: from tissue; host or cells: dog hypothalamus homogenate, 10,000 g supernatant
# T1 sequence (A0A8I3N6C8 1-710): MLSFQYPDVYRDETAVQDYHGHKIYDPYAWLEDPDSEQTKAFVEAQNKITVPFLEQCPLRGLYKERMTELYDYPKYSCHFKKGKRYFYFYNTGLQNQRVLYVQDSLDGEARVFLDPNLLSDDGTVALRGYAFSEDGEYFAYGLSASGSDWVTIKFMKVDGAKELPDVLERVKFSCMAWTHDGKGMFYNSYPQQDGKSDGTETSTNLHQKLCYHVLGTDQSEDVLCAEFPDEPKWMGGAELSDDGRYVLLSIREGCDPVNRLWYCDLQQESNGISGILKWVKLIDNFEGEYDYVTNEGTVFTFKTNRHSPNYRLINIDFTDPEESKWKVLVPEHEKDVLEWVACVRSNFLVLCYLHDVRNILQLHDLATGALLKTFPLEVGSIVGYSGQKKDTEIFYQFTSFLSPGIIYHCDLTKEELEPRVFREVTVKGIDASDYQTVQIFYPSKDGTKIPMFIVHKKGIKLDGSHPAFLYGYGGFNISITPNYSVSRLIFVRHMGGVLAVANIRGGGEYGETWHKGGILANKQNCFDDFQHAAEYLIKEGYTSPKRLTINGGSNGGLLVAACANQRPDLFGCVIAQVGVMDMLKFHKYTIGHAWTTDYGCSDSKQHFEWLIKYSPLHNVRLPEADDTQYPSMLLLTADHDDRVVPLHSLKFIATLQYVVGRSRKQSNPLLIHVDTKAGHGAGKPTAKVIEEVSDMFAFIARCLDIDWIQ
# Protocol: (§6) As a result of these discoveries, the enzyme(s) involved in the production of Ang-(1-7) in homogenates (20 mM TRIS HCl buffer, pH 7.5) of dog hypothalamus were evaluated.
# [2] = tested on: vascular smooth muscle cultures (VSMC) from normotensive (WKY) rats; test: 125I-Ang I metabolism by intact vascular smooth muscle cultures of WKY (HPLC); type: cell-based, rat; settings: for effect on the levels of 125I-Ang-(1-7) / inhibition of the formation of 125I-Ang-(1-7) from 125I-Ang I: 10 μM
# Protocol: (§7) Aortic smooth muscle cells were isolated according to the following general process. The adventia and outer third medial layer were removed from segments (2 cm^2) of the thoracic aorta from SHR or WYK rats, minced into 1 cm^2 pieces and allowed to adhere on plastic for 15 minutes. The explants were incubated with Dulbecco's modified Eagles' medium (DMEM, Irvine Scientific CO., Irvine, Calif.) diluted 1:1 with F12 (Irvine Scientific) and supplemented with 10% fetal calf serum and 1% penicillin/streptomyocin in a humid atmosphere of 95% air, 5% CO2 at 37° five days and the tissues were removed after a halo of cells appeared around the explant. […] The culture medium was changed daily for the three days and thereafter, every third day. The smooth muscle cells were evaluated both for their morphological appearance and their recognition of a monoclonal antibody to smooth muscle-type alpha actin (A 2547, Sigma Chemical, St. Louis, MO).
# (§8) For metabolism studies, cell monolayers (passage 4 to 6) in 24 well plates were washed twice with 1.0 ml of Krebs-Ringer solution (125 mM NaCl, 5 mM KCl, 1.0 mM CaCl2, 1.2 mMMgSO4, 25 mM HEPES, pH 7.4 and 6 mM glucose). Intact cells were incubated with ^125 I-Ang I (0.2-0.4 nM, final concentration) both in the presence and absence of enzyme inhibitors in 0.25 ml of Krebs buffer at 37° C. At selected time points, aliquots (0.05 ml) were withdrawn from the well, diluted in 0.15 ml 80% acetonitrile (ACN)/0.2% heptafluorobutyric acid (HFBA) stored at -80° C. prior to analysis by high performance liquid chromatography (HPLC). In addition, 0.20 ml of the medium, exposed to the cells for 60 minutes were incubated with ^125 I-Ang I for 60-120 minutes at 37° C. and analyzed by HPLC.
# (§9) ^125 I-products were characterized by HPLC using a heptafluorobutyric acid (HFBA) solvent system. This system consisted of 0.13% HFBA (mobile phase A) and 80% ACN/0.13% HFBA (mobile phase B) and the analysis was performed on a Kratos 400 HPLC equipped with a Waters Nova-Pak C18 column (Waters, MA, 2.1×15 mm) and an Aquapore column (Waters, MA, 2.1×15 mm) and an Aquapore C8 guard column (Applied Biosystems, 3.2×1.5 mm). The gradient conditions consisted of 20-50% B Linear (30 min) and 50% B isocratic (10 min) at a flow rate of 0.3 ml/min at room temperature. HPLC fractions were collected every 0.5 min and counted in a gamma counter. Products were identified by comparison of their retention times to those of standard ^125 I-angiotensin peptides. To further assess the identity of each radioactive peak, either the incubation samples or ^125 I-products were rechromatographed using a trifluoracetic acid (TFA) solvent. This system consisted of 0.1% TFA, pH 4.5 (mobile phase A) and 60% ACN/0.1% TFA pH 4.5 (mobile phase B). A linear gradient of 15-45% B (30 min) and 45% B isocratic (10 min) at 0.3 ml/min at room temperature was performed on the HPLC system described above.
# (§10) Statistics: Differences in the generation of ^125 I-peptides under various conditions were assessed by analyses of variance followed by Newman Keuls multiple comparison test. The criterion for statistical significance was set at p<0.05.
# [3] = tested on: vascular smooth muscle cultures (VSMC) from spontaneously hypertensive rats; settings: for effect on the levels of 125I-Ang-(1-7) / inhibition of the formation of 125I-Ang-(1-7) from 125I-Ang I: 10 μM
# Protocol: as §7, §8, §9, §10
# [4] = tested on: prolylendopeptidase; test: 125I-Ang-(1-7) production from 125I-Ang I in dog hypothalamus homogenates (HPLC); type: biochemical
# Protocol: as §6
# [5] = tested on: NG108 cells; test: Ang-(1-7) production from Ang I in NG108 cells; type: cell-based
# [6] = tested on: spontaneously hypertensive rats (SHR); test: Blood angiotensin peptides (RIA) after i.v. Ang I in conscious SHR with enzyme inhibitors; type: in vivo, rat
# Protocol: (§1) All experiments were carried out in strict adherence to the principles sponsored by the American Physiological Society. Male 16-week-old SHR(319±4 gm) and WKY(315±4 gm) controls (Charles River, Wilmington, Mass.) were housed in rooms maintained on a 12 hr light-dark cycle. Animals ate a solid diet of rat chow (Purina, Bedford, Ohio) and had free access to water. Cannulas (PE-50 and PE-10, Clay Adams Becton Dickinson, Parsippany, N.J.) were implanted into a femoral artery and vein using aseptic conditions in rats anesthetized with 1% halothane 24 hours beforehand. The free ends of the cannulas were tunneled under the skin and externalized at the back of the neck.
# (§2) Conscious rats were divided into five groups. Group I (n=4 SHR and 4 WKY) received an i.v. injection of 0.9% NaCl. Group II (n=4 SHR and 4 WKY) was given an i.v. injection of enalaprilat (MK-422,2 mg/kg). Group III (n=4 SHR and 4 WKY) was injected with (N-{N-[1-(S)-carboxy-3-phenylpropyl]-(S)-phenylalanyl}-(S)-isoserine) at a dose of 15 mg/kg. […] Group IV (n=4 SHR and 4 WKY) received both MK-422 (2 mg/kg) and SCH 39,370 (15 mg/kg). Group V (n=3 SHR and 3 WKY) were given MK- 422 (2 mg/kg) and Z-prolyl-prolinal (5 mg/kg), a specific inhibitor of prolyl endopeptidase (Friedman TC, Orlowski M, Wilk S: Prolyl Endopeptidase: Inhibition in vivo by N-benzyloxycarbonyl-prolyl-prolinal. J. Neurochem. 42:237-241,1984). Either saline (vehicle) or the enzyme inhibitors were administered 20 minutes before an i.v. injection of 0.2 ml of Ang I (2 nmol) in heparinized saline. Serial samples of arterial blood (0.2 ml) were rapidly collected into ice-chilled tubes containing 5 ml of 80% ethanol/0.1N HCL every 15-30 sec before and after injection of Ang I. The amount of blood removed in each sample was replaced with an equal volume of saline. The dead space (0.08 ml) of the femoral artery catheter was cleared of any remaining saline or blood before obtaining the samples.
# (§3) Peptide Extraction and Analyses: Samples were centrifuged at 5,000 g for 20 minutes; the supernatant was stored for 12 hours at -20° C. After a second centrifugation step (10,000 g, 20 min) the supernatant was diluted 1:1 (V:V) with 1% heptaflurobutyric acid (HFBA), stored for 4-6 […] hours at 4° C., and centrifuged again at 15,000 g. This supernatant was further diluted 1:4 with 0.2% HFBA and concentrated on a Sep-Pak Vac Cartridge (Millipore Co., Milford, Mass.) activated beforehand with 3 ml of 60% acetonitrile/0.2% HFBA, 3 ml of 0.1% bovine serum albumin in 0.2% HFBA, and 5 ml of HFBA. After application of the supernatant, the column was washed with 10 ml of 0.2% HFBA. Angiotensin peptides were eluted with 8 ml of 60% acetonitrile/0.2% HFBA. Fractions were evaporated to dryness in a vacuum centrifuge (Savant Instrument Inc., Hicksville, N.Y.) for measurements by radioimmunoassay (RIA). Different aliquots of the samples were assayed to ensure linearity. Peptide recovery for Ang I added to the acid ethanol solution prior to blood sample averaged 85±4%, n=6, SFM): peptide values were not corrected for recovery. Moreover, no in vitro conversion of Ang I into either Ang-(1-7) or Ang II was observed.
# (§4) The RIAs employed by the inventors to determine concentrations of Ang I, Ang II, and Ang-(1-7) are described in detail elsewhere. See, Chappell MC, Brosnihan KB, Diz DI, Ferrario CM: Identification of Angiotensin-(1-7) in Rat Brain: Evidence for Differential Processing of Agiotensin Peptides. J. Biol. Chem. […]:16518-16523,1989; and, Kohara K, Brosnihan KB, Chappell MC, Khosla MC, Ferrario CM: Angiotensin-(1-7): A Member of Circulating Angiotensin Peptides. Hypertension 17:131-138, 1991. […] The sensitivity of the Ang I assay (defined as twice the minimum detection level) averaged 5 fmol/tube. The Ang II antibody was produced by the inventors. […] The sensitivity of the Ang II RIA is 0.5 fmol/tube. The antibody of Ang-(1-7) (Core No. 1) was obtained in the inventors laboratory. […]
# [7] = tested on: Wistar Kyoto (WKY) rats; test: Blood angiotensin peptides (RIA) after i.v. Ang I in conscious WKY with enzyme inhibitors; type: in vivo, rat
# Protocol: as §1, §2, §3, §4
# [8] = tested on: SHR; test: Blood pressure effect of SCH 39,370 in SHR; type: in vivo, rat
# [9] = tested on: NEP 24.11; settings: cited from earlier work
# [10] = biological target: ACE (Homo sapiens, UniProt P12821); settings: cited from earlier work
# Chain of ACE (P12821 30-1306, species assumed): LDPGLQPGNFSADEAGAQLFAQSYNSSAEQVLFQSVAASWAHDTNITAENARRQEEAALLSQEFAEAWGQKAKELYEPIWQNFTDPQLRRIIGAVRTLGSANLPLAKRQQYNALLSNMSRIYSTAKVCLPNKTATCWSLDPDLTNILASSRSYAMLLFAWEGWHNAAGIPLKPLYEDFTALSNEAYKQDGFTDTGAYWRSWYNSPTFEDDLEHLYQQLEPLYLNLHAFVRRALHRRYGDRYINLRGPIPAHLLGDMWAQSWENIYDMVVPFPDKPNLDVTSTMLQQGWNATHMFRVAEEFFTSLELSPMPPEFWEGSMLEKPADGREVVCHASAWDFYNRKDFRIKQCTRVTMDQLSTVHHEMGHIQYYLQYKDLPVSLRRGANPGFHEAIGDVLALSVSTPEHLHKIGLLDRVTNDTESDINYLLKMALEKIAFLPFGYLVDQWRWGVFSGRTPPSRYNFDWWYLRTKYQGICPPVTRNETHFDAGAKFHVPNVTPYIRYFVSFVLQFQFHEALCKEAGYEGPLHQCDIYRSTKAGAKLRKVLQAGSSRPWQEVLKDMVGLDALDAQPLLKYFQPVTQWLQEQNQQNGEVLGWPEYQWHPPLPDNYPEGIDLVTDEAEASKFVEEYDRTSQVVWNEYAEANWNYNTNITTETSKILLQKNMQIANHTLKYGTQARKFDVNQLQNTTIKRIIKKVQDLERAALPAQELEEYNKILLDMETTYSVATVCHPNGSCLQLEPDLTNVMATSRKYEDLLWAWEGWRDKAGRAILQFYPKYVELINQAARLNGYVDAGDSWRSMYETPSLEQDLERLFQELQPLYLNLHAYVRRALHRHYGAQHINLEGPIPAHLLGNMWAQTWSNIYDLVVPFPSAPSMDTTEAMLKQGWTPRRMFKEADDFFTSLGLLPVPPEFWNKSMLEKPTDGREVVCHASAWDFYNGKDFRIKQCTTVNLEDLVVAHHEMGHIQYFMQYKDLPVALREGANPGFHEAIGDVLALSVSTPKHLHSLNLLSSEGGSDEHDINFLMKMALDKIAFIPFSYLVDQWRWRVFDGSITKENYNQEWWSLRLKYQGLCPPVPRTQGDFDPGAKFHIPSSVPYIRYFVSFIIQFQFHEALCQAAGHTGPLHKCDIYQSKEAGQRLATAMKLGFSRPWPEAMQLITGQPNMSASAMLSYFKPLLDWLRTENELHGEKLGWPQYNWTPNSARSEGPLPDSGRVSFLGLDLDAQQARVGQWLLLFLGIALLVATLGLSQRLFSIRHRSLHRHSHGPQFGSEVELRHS
# [11] = biological target: T2, carboxypeptidase A (Homo sapiens, UniProt P15085); settings: cited from earlier work
# T2 sequence (P15085 111-419): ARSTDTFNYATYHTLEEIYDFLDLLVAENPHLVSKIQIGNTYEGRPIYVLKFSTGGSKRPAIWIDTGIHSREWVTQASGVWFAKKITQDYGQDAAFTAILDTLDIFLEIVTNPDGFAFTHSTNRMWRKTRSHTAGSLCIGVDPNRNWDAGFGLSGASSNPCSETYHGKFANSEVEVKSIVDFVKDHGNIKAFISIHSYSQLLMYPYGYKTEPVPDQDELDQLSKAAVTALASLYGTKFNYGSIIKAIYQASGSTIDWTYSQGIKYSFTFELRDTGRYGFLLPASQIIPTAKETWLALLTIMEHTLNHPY
# [12] = tested on: DOCA-salt hypertensive rats; settings: cited from earlier work
# [13] = tested on: spontaneously hypertensive rats (SHR); test: Third ventricle push-pull perfusion in SHR, MAP and HR; type: in vivo, rat
# Protocol: (§5) In order to assess the effectiveness of Z-Proprolinal, the specific inhibitor of prolyl endopeptidase, in controlling blood pressure the following study was conducted. […] Similar studies were performed in age-matched normotensive Wistar-Kyoto control rats (WKY) (obtained from Taconic Farms, New York).
# [14] = tested on: normotensive Wistar-Kyoto control rats (WKY); test: Third ventricle push-pull perfusion in WKY, MAP and HR; type: in vivo, rat
# Protocol: as §5
# [15] = mammals; cited from earlier work
# [16] = tested on: NEP 24.11; settings: human; cited from earlier work
# [17] = human urine; settings: cited from earlier work
# [18] = swine urine; settings: cited from earlier work
# [19] = vascular smooth muscle; settings: cited from earlier work
# [20] = cultured mouse spinal cord cells; settings: cited from earlier work
# [21] = preparations of synaptic membranes from the rat brain; settings: cited from earlier work
# [22] = supernatants of dog brain tissue punch homogenates (ACE activity assay); settings: mongrel dogs, 37° C., up to 15 minutes
compound,measurement,setting,value
O[C@@H](CS)[C@@H](O)CS [DTT],increase in the rate of generation of Ang-(1-7),[1],about three fold
"O=S(=O)(O)c1cc[c]([Hg][Cl])cc1 [PCMS, p-chloromercuriphenylsulfonate acid]",inhibition of 125I-Ang-(1-7) levels,"[2]; 1 μM, data not shown",to a similar extent as that observed with cPF-AAF-pAB
same,inhibition of 125I-Ang-(1-7) levels,"[3]; SHR VSMC, 1 μM, data not shown",to a similar extent as that observed with cPF-AAF-pAB
CC(C)C[C@H](NP(=O)(O)O[C@@H]1O[C@@H](C)[C@H](O)[C@@H](O)[C@H]1O)C(=O)N[C@@H](Cc1c[nH]c2ccccc12)C(=O)O [Phosphoramidon],inhibition of Ang-(1-7) formation,[4],12%
same,production of Ang-(1-7) in the presence of the inhibitor,[4]; canine hypothalamic homogenates,not inhibited
same,production of Ang-(1-7) in the presence of the inhibitor,[5],not inhibited
"O=C(O)[C@H](CCc1ccccc1)N[C@@H](Cc1ccccc1)C(=O)NC[C@H](O)C(=O)O [SCH 39,370, N-{N-[1-(S)-carboxy-3-phenylpropyl]-(S)-phenylalanyl}-(S)-isoserine]",reduction of peak levels of Ang-(1-7) below vehicle,[6]; SHR,74%
same,peak level of Ang I in blood,"[6]; SHR, 15 seconds after Ang I 2 nmol i.v., saline (label Ang I) or SCH 39,370 15 mg/kg 20 minutes before",6.2 ± 0.4 pmol/mL
same,peak level of Ang II in blood,"[6]; SHR, 15 seconds after Ang I 2 nmol i.v., saline (label Ang I) or SCH 39,370 15 mg/kg before",27.2 ± 3.8 pmol/mL
same,change of baseline and peak plasma levels of Ang II,"[6]; SHR, SCH 39,370",double
same,formation / levels of Ang-(1-7) versus vehicle,"[6]; SHR, SCH 39,370 15 mg/kg alone, difference statistically significant",decreased; also recorded: inhibited the formation of Ang-(1-7)
same,baseline level of Ang II,"[6]; SHR, after SCH 39,370 15 mg/kg, before 0.02±0.02",0.18 ± 0.04 pmol/mL
same,inhibition of Ang-(1-7) production at larger doses,"[6]; preliminary experiments, doses above 15 mg/kg, strain not stated",no further inhibition
same,reduction of peak levels of Ang-(1-7) below vehicle,[7],51%
same,peak level of Ang I in blood,"[7]; 15 seconds after Ang I 2 nmol i.v., saline (label Ang I) or SCH 39,370 15 mg/kg 20 minutes before",4.3 ± 0.4 pmol/mL
same,peak level of Ang II in blood,"[7]; 15 seconds after Ang I 2 nmol i.v., saline (label Ang I) or SCH 39,370 15 mg/kg before",21.8 ± 5.4 pmol/mL
same,change of baseline and peak plasma levels of Ang II,"[7]; SCH 39,370",double
same,formation of Ang-(1-7) versus vehicle,"[7]; SCH 39,370 15 mg/kg alone, difference not significant (p>0.05)",inhibited the formation of Ang-(1-7)
same,baseline level of Ang II,"[7]; after SCH 39,370 15 mg/kg, before 0.04±0.02",0.12 ± 0.04 pmol/mL
same,effect on blood pressure,[8],did not reduce blood pressure
same,inhibition of NEP 24.11,[9],specific and potent inhibitor
same,inhibition of ACE,[10],does not inhibit
same,inhibition of carboxypeptidase A,[11],does not inhibit
same,effect on blood pressure,[12],antihypertensive effects
"O=C[C@@H]1CCCN1C(=O)[C@@H]1CCCN1C(=O)OCc1ccccc1 [ZPP, N-benzyloxycarbonyl-prolylprolinal] (Cbz-Pro-Pro-aldehyde)",fall in MAP in response to depolarizing K+ after ZPP pretreatment,[13]; K+ alone -19±4 mmHg,did not change the magnitude of the fall in MAP
same,HR response to depolarizing K+ after ZPP pretreatment,[13]; K+ alone -32±7 beats/min,attenuated
same,decrease in mean arterial pressure,"[13]; ZPP 1 μM perfusion of third ventricle, n=13, basal MAP 156±5 mmHg",-37±4 mmHg
same,heart rate (HR) with ZPP perfusion,"[13]; ZPP 1 μM, from 384±10",376±19 beats/min
same,effect on either MAP or HR,"[14]; WKY (n=13), ZPP 1 μM",no effect
same,MAP with ZPP perfusion,"[14]; WKY, ZPP 1 μM, from 99±6",100±7 mmHg
same,HR with ZPP perfusion,"[14]; WKY, ZPP 1 μM, from 379±18",368±27 beats/min
same,reduction in MAP by K+ in the presence of ZPP,"[14]; WKY, K+ alone -16±3 mmHg",-6±4 mmHg
same,reduction in HR by K+ in the presence of ZPP,"[14]; WKY, K+ alone -37±7 beats/min",-13±8 beats/min
same,effect on the levels of 125I-Ang-(1-7),[2],no effect
same,effect on the levels of 125I-Ang-(1-7),[3]; SHR VSMC,no effect
same,blood-brain barrier (BBB) passage,[15],readily traverses the blood-brain barrier
"C[C@H](NC(=O)[C@H](C)NC(CCc1ccccc1)C(=O)O)C(=O)N[C@@H](Cc1ccccc1)C(=O)Nc1ccc(C(=O)O)cc1 (stereo partly drawn) [cFP-AAF-pAB, Carboxyphenylpropyl-alanyl-alanyl-phenylalanyl-para-aminiobenzoate]",inhibition of the formation of 125I-Ang-(1-7) from 125I-Ang I,[2],90%
same,inhibition of the formation of 125I-Ang-(1-7) from 125I-Ang I,[2]; listed as cPf-AAF-pAB,over 90%
same,inhibition of the formation of 125I-Ang-(1-7) from 125I-Ang I,[3]; SHR VSMC,90%
same,inhibition of the formation of 125I-Ang-(1-7) from 125I-Ang I,"[3]; SHR VSMC, listed as cPf-AAF-pAB, 10 µM",over 90%
O=C(O)CNC(=O)C(CS)Cc1ccccc1 (stereo not drawn) [thiorphan],effect on the levels of 125I-Ang-(1-7),[2],no effect
same,effect on the levels of 125I-Ang-(1-7),[3]; SHR VSMC,no effect
Asp-Arg-Val-Tyr-Ile-His-Pro-Phe,cleaved bond,[16],Tyr4-Ile5
same,fragment found,[17],Angiotensin-(1-7)
same,fragment found,[18],Angiotensin-(1-7)
same,fragment found,[19],Angiotensin-(1-7)
same,fragment found,[20],Angiotensin-(1-7)
same,fragment found,[21],Angiotensin-(1-7)
His-Leu,not cleaved,[22],hydrolysis of the product His-Leu was less than 6%
"^125 I-Ang I: 125I-labelled Ang I used as substrate (DRVYIHPFHL; also: 125I label; UniProt P01019 25-34, looked up)",125I-Ang-(1-7) generation as share of the total 125I-Ang I metabolism,[3],65-80%
same,main peptide product in the medium,[3],^125 I-Ang-(1-7)
